The subject of assay [1] is BALB/c mice, severe IR-AKI. Kind of assay: Severe ischemia-reperfusion AKI (IR-AKI). Type of assay: in vivo, mouse. The protocol: Surgeries were performed on a water-bath heated platform at 38° C. on 10-12 week old male BALB/c mice. For moderate IR-AKI, mice underwent a right nephrectomy followed by left renal pedicle clamping (800 μm pressure clamp, FST 18052-03). The clamp was released after 26 minutes, and tissue reperfusion was confirmed before completing the surgery. Mice were treated daily with indicated doses of compounds or equivalent volume of 20% 2-hydroxypropyl-β-cyclodextrin in water as vehicle control starting 24 h after injury. Since initial injury with this model is variable, mice were randomly allocated vehicle or m4PTB treatment if their serum creatinine levels were 0.8 to 1.2 mg/dl 24 h post IR injury. Other mice were excluded from further analysis and euthanized. To induce severe IR-AKI, mice underwent left renal pedicle clamping for 30 minutes and delayed contralateral nephrectomy was performed after 8 days.
For mouse studies, kidney sections were stained using Periodic Acid-Schiff (PAS) to assess renal tubular injury. Tubular injury (casts, dilated tubules, epithelial cell blebbing, and vacuolization, loss of brush borders or nuclei) was scored as described. Sirius red staining was performed using an established protocol used to evaluate renal fibrosis/collagen accumulation in kidney sections. To quantify Sirius red staining we used an Olympus BX-41 microscope equipped with an Olympus DP-72 digital camera system and polarizing light filter. Results are expressed as the mean percent fibrosis for all of the images per slide region (Sirius red positive/total surface area).
We used of 2-hydroxypropyl-β-cyclodextrin (CD, Sigma), a low toxicity drug formulation vehicle that has been well characterized and used extensively as a hydrophobic drug delivery vehicle. We could achieve concentrations of up to ˜12 mg/ml of PTBA analogues in 20% CD in water (100 mg/kg in volumes of ˜150-250 μl), and daily IP injections with 200 μl 20% CD in water had no effect on renal functional recovery following IR-AKI. Therefore all studies were performed using compounds dissolved in 20% CD. To assess dosing and biological activity of PTBA analogues in mice, CD1 mice were injected with varying doses of compounds IP and kidneys isolated at different time point for histone extraction and analysis of histone H4 acetylation, a marker of HDAC inhibitor activity, as outlined below. Based on results of these studies, mice were treated daily with 1, 10, 50 or 100 mg/kg of compound or equivalent volume of 20% CD vehicle control starting 24 h after injury.
˜30 μl blood was obtained by tail vein bleed at different time points, and serum samples frozen after confirming that they had not undergone hemolysis (which interferes with enzymatic analysis for serum creatinine). Serum creatinine was evaluated in duplicate samples using a commercially available enzymatic cascade assay (Pointe Scientific, requires only ˜7 μl of serum). […] Blood Urea Nitrogen (BUN) was determined in duplicate samples using a colorimetric enzymatic assay kit (Infinity Urea, Thermo Scientific), and spot urinary albumin/creatinine ratios determined using a mouse albumin ELISA and urinary creatinine assay kit (Albuwell and Creatinine Companion, Exocell).
Compounds 22, 25, 29, 36, and 186 were injected for 7 days at […] starting 24 hrs after severe IR treatment. […] Fibrotic (scar) tissue was measured using Sirus Red after 28 days for various markers of fibrosis.

Assay [2] concerns mouse models of unilateral ureteral obstruction (UUO). Kind of assay: Unilateral ureteral obstruction (UUO). Type of assay: in vivo. An excerpt:
The model of unilateral ureteral obstruction generates progressive renal fibrosis. Surgically created UUO can be experimentally manipulated with respect to timing, severity, and duration, while reversal of the obstruction permits the study of recovery.
FIG. 47 represents the results of the testing of compounds UPHD-00022, UPHD-00025 (PTBA), UPHD-00029, UPHD-00036, and UPHD-00186, for their efficacy in mouse models of unilateral ureteral obstruction (UUO) as follows: in the UUO models, one ureter was ligated for 7 days and compounds were delivered via IP for days 0 to 6. At day 7 kidneys were harvested for Sirius red staining. […] Therefore, in the models tested, the only compound proven to be effective in all models and with significant delayed onset of treatment is UPHD-186.

Assay [3] deals with kidney field (cad17:EGFP). Kind of assay: Image-based high-content screen, Tg(cad17:EGFP) embryos, CNT analysis. Type of assay: in vivo, zebrafish. Particulars: 4 individual values (n=4). An excerpt:
Initial studies, above, used a phenotypic marker of the ability to expand the renal progenitor cell field in larval zebrafish, and identified the first member of a novel class of HDAC inhibitors, PTBA as well as a few structural and functional analogs. These findings form the basis for further study. However, this technology is limited as it is dependent on subjective interpretation of a subtle phenotypic change in the fish. Therefore, in order to develop a more objective and higher content screen, we developed an image-based high-content screen using transgenic zebrafish (Vogt A, et al. Automated image-based phenotypic analysis in zebrafish embryos. Dev Dyn. 2009; 238(3):656-63). […] Tg(Cad17:EGFP) zebrafish is a transgenic line that was prepared by isolation of an approximately 5 kb (5066 bp) promoter element and approximately 3 kb (3221 bp) first intron element from the cadherin 17 locus, cloning it into a plasmid along with the enhanced GFP open reading frame and injecting if into zebrafish embryos to established transgenic lines using the meganuclease transgenesis method (Soroldoni et al., Simple and efficient transgenesis with meganuclease constructs in zebrafish, Methods Mol Bio 2009; 546: 117-30.). […]
For all second-generation compounds, the cad17:EGFP transgene is used as the primary readout to assay for expansion of kidney field (FIG. 35). […]

[4] abbreviates: 7 days at 50 mg/ml starting 24 hrs after severe IR.

“And” between values parts separate entries of the source, which are not always exact repeats. Identical values can stand only once.

What is called EC50 is the concentration giving half of the maximal effect. Low values mean a more potent agent, high ones a less potent agent. Regarding `O=C(CCCSc1ccccc1)Nc1ccccc1O` [UPHD-00186, N-(2-hydroxyphenyl)-4-(phenylsulfanyl) butanamide], in assay [1] (setting [4]), the “fibrosis after 28 days (Sirus Red, markers of fibrosis)” value is given as “most reduction in fibrosis” and the “serum creatinine at day 9” value is reported as “better activity”. For the same compound, the “effect of timing of treatment in severe IR-AKI” value in assay [1] (FIG. 46) is reported as “has still a significant effect on IR-AKI after more than 7 days”. In addition, the “post injury fibrosis with delayed treatment” value in assay [1] (treatment 3 days after IR-AKI, FIG. 48) is recorded as “still markedly reduces post injury fibrosis”. Besides, the “reduction in post injury fibrosis at various dosages” value in assay [1] (various dosages, FIG. 45) was “efficient at elevated doses”. Besides, the “fibrosis (Sirius red) and expression of fibrosis markers in UUO kidney” value in assay [2] (IP days 0 to 6, kidneys harvested at day 7) was “reduce both fibrosis and expression of fibrosis markers”. Moreover, the “prevention of post injury fibrosis in UUO compared with Vorinostat (SAHA)” value in assay [2] (mouse, in vivo) is “more effective than the FDA approved HDACi drug Vorinostat (SAHA)”. Further, the 50% effective concentration (EC50) in assay [3] was 649 nM and 810 nM and 818 nM. Moreover, the 50% effective concentration (EC50) in assay [3] (Danio rerio) was found to be 587 nM.

Source of the values: US10233201B2, “Class of HDAC inhibitors expands the renal progenitor cells population and improves the rate of recovery from acute kidney injury” (University of Pittsburgh—Of the Commonwealth System of …, priority 2012, dated 2019).
